From patent publication US11389414B2, “Methods for treating atherosclerosis with gamma-ketoaldehyde scavengers” (Vanderbilt University, priority 2017, dated 2022)

Experiments:
[1] = tested on: hypercholesterolemic Ldlr^−/− mice; assay: Atherosclerosis analysis (Oil-Red-O proximal aorta cross-sections and en face aorta) in western diet fed mice; assay type: in vivo, mouse; details: western diet 16 weeks; for reduction of atherosclerosis, en face analysis of the aorta / reduction of the extent of proximal aortic atherosclerosis: 1 g/L in water
Description: (§1) Mice: Ldlr^−/− and WT on C57BL/6 background mice were obtained from the Jackson Laboratory. Animal protocols were performed according to the regulations of Vanderbilt University's Institutional Animal Care and Usage Committee. Mice were maintained on chow or a Western-type diet containing 21% milk fat and 0.15% cholesterol (Teklad). Eight week old, female mice were pretreated mice with vehicle alone (Water) or containing either 1 g/L of 4-HOBA or 1 g/L of 2-HOBA. After two weeks, the mice continued to receive treatment and were administered a Western diet for 16 weeks to induce hypercholesterolemia and atherosclerosis.
(§2) Atherosclerosis Analyses and Cross-section Immunofluorescence Staining: The extent of atherosclerosis was examined both in Oil-Red-O-stained cross-sections of the proximal aorta and by en face analysis using the KS300 imaging system (Kontron Elektronik GmbH). For immunofluorescence staining, 5 μm cross-sections of the proximal aorta were fixed in cold acetone (Sigma), blocked in Background Buster (Innovex), incubated with indicated primary antibodies (MDA and CD68) at 4° C. for overnight. After incubation with fluorescent labeled secondary antibodies at 37 C for 1 hour, the nucleus was counter stained with Hoechst. Images were captured with a fluorescence microscope (Olympus IX81) and SlideBook 6 (Intelligent-Image) software and quantitated using ImageJ software (NIH).

MDA-apoAI adducts = assay: Plasma apoAI immunoprecipitation and western blotting for MDA-apoAI and apoAI; assay type: in vivo, mouse; details: western diet 16 weeks
Description: as §1
Measurement of MDA-LDL, MDA-HDL, and MDA-ApoAI: Sandwich ELISA was used to measure plasma MDA-LDL and MDA-HDL levels following the manufacturer's instructions (Cell BioLabs, Inc.). Briefly, isolated LDL or HDL samples and MDA-HDL standards were added onto anti-MDA coated plates, and after blocking, the samples were incubated with biotinylated anti-apoB or anti-ApoAI primary antibody. The samples were then incubated for 1 h with streptavidin-enzyme conjugate and 15 min with substrate solution. After stopping the reaction, the O.D. was measured at 450 nm wavelength. MDA-ApoAI was detected in mouse plasma by immunoprecipitation of ApoAI and western blotting. Briefly, 50 μl of mouse plasma were prepared with 450 μL of IP Lysis Buffer (Pierce) plus 0.5% protease inhibitor mixture (Sigma), and immunoprecipitated with 10 μg of polyclonal antibody against mouse ApoAI (Novus). Then 25 μL of magnetic beads (Invitrogen) was added, and the mixture was incubated for 1 h at 4° C. with rotation. The magnetic beads were then collected, washed three times, and SDS-PAGE sample buffer with β-mercaptoethanol was added to the beads. After incubation at 70° C. for 5 min, magnetic field was applied to the Magnetic Separation Rack (New England), and the supernatant was used for detecting mouse ApoAI or MDA. For Western blotting, 30-60 μg of proteins was resolved by NuPAGE Bis-Tris electrophoresis (Invitrogen), and transferred onto nitrocellulose membranes (Amersham Bioscience). Membranes were probed with primary rabbit antibodies specific for ApoAI (Novus) or MDA (Cell signaling) and fluorescent tagged IRDye 680 (LI-COR) secondary antibody. Proteins were visualized and quantitated by Odyssey 3.0 Quantification software (LI-COR).

[2] = background statement; cited from earlier work
[3] = background statement; cited from earlier work; remark: listed apart in the source
[4] = Body weight and plasma total cholesterol and triglyceride levels of treated mice; assay type: in vivo, mouse; details: compared to vehicle or 4-HOBA; data not shown
Description: as §1

[5] = tested on: MDA content of proximal aortic atherosclerotic lesions in Ldlr^−/− mice; assay: MDA immunofluorescence of proximal aortic atherosclerotic lesions; assay type: in vivo, mouse
Description: as §1, §2

[6] = tested on: atherosclerotic lesions of Ldlr^−/− mice; assay: Masson's Trichrome staining of lesions (collagen content, fibrous cap thickness, necrotic core); assay type: in vivo, mouse
Description: as §1
Masson's Trichrome Staining: Masson's Trichrome Staining was applied for measurement of atherosclerotic lesion collagen content, fibrous cap thickness and necrotic core size following the manufacture's instruction (Sigma) and as previously described. Briefly, 5 μm cross-sections of proximal atherosclerotic aorta root were fixed with Bouin's solution, stained with hematoxylin for nuclei (black), biebrich scarlet and phosphotungstic/phosphomolybdic acid for cytoplasm (red), and aniline blue for collagen (blue). Images were captured and analyzed for collagen content, atherosclerotic cap thickness and necrosis core by ImageJ software as described earlier.

[7] = tested on: atherosclerotic lesions of Ldlr^−/− mice; assay: Lesion apoptosis (TUNEL) and efferocytosis in proximal aorta sections; assay type: in vivo, mouse
Description: as §1
(§3) In vitro Cellular Apoptosis and Analysis of Lesion Apoptosis and Efferocytosis: Cell apoptosis was induced as indicated and detected by fluorescent labeled Annexin V staining and quantitated by either Flow Cytometry (BD 5 LSRII) or counting Annexin V positive cells in images captured under a fluorescent microscope. The apoptotic cells in atherosclerotic lesion were measured by TUNEL staining of cross-sections of atherosclerotic proximal aorta as previously described. The TUNEL positive cells not associated with live macrophages were considered free apoptotic cells and macrophage-associated apoptotic cells were considered phagocytosed as a measure of lesion efferocytosis as previously described.

primary macrophages = assay: H2O2 induced apoptosis, Annexin V staining, macrophages; assay type: cell-based, mouse; details: 250 μM H2O2, 24 h; compared to vehicle or 4-HOBA
Description: (§4) Cell Culture: Peritoneal macrophages were isolated from mice 72 hours post injection of 3% thioglycollate and maintained in DMEM plus 10% fetal bovine serum (FBS, Gibco) as previously described. Human aortic endothelial cells (HAECs) were obtained from Lonza and maintained in endothelial cell basal medium-2 plus 1% FBS and essential growth factors (Lonza).
as §3

aortic endothelial cells = assay: H2O2 induced apoptosis, Annexin V staining, endothelial cells; assay type: cell-based, mouse; details: 250 μM H2O2, 24 h; compared to vehicle or 4-HOBA
Description: as §4, §3

peritoneal macrophages = assay: Macrophage inflammatory response, real time PCR of IL-1β, IL-6, TNF-α mRNA; assay type: cell-based, mouse; details: oxidized LDL, 24 h
Description: as §4
RNA Isolation and Real-Time RT-PCR: Total RNA was extracted and purified using Aurum Total RNA kit (Bio-Rad) according to the manufacturer's protocol. Complementary DNA was synthesized with iScript reverse transcriptase (Bio-Rad). Relative quantitation of the target mRNA was performed using specific primers, SYBR probe (Bio-Rad), and iTaqDNA polymerase (Bio-Rad) on IQ5 thermocylcer (Bio-Rad) and normalized with 18S, as described earlier. 18S, IL-1β and TNF-α primers used were as described earlier.

MDA-LDL adducts = assay: Plasma MDA-LDL sandwich ELISA; assay type: in vivo, mouse; details: western diet 16 weeks
Description: as §1
(§5) Measurement of MDA-LDL, MDA-HDL, and MDA-ApoAI: Sandwich ELISA was used to measure plasma MDA-LDL and MDA-HDL levels following the manufacturer's instructions (Cell BioLabs, Inc.). Briefly, isolated LDL or HDL samples and MDA-HDL standards were added onto anti-MDA coated plates, and after blocking, the samples were incubated with biotinylated anti-apoB or anti-ApoAI primary antibody. The samples were then incubated for 1 h with streptavidin-enzyme conjugate and 15 min with substrate solution. After stopping the reaction, the O.D. was measured at 450 nm wavelength. MDA-ApoAI was detected in mouse plasma by immunoprecipitation of ApoAI and western blotting. […] Proteins were visualized and quantitated by Odyssey 3.0 Quantification software (LI-COR).

MDA-HDL adducts = assay: Plasma MDA-HDL sandwich ELISA; assay type: in vivo, mouse; details: western diet 16 weeks
Description: as §1, §5

[8] = tested on: ApoE−/− macrophage foam cells; assay: Capacity of HDL isolated from treated mice to reduce macrophage cholesterol; assay type: cell-based, mouse; details: HDL 25 μg protein/ml, 24 h
Description: as §1
HDL Isolation from Mouse Plasma and Measurement of HDL Capacity to Reduce Macrophage Cholesterol: HDL was isolated from mouse plasma using HDL Purification Kit (Cell BioLabs, Inc.) following the manufacturer's protocol. Briefly, apoB containing lipoproteins and HDL were sequentially precipitated with dextran sulfate. The HDL was then resuspended and washed. After removing the dextran sulfate, the HDL was dialyzed against PBS. To measure the capacity of the HDL to reduce macrophage cholesterol, apoE^−/− macrophages were cholesterol enriched by incubation for 48 h in DMEM containing 100 μg protein/ml of acetylated LDL. […] Cellular cholesterol was measured before and after incubation with HDL using an enzymatic cholesterol assay as described.

macrophages = assay: In vitro modification of LDL with MDA, then macrophage cholesterol content; assay type: cell-based; details: 2-HOBA present during LDL (5 mg/mL) modification with MDA (10 mM); versus vehicle; LDL with macrophages 24 h
Description: Modification of HDL and LDL with MDA: MDA was prepared immediately before use by rapid acid hydrolysis of maloncarbonyl bis-(dimethylacetal) as described. Briefly, 20 μL of 1 M HCl was added to 200 μL of maloncarbonyl bis-(dimethylacetal), and the mixture was incubated for 45 min at room temperature. The MDA concentration was determined by absorbance at 245 nm, using the coefficient factor 13, 700 M-1 cm-1. HDL (10 mg of protein/mL) and increasing doses of MDA (0, 0.125 mM, 0.25 mM, 0.5 mM, 1 mM) were incubated at 37° C. for 24 h in 50 mM sodium phosphate buffer (pH7.4) containing DTPA 100 μM. Reactions were initiated by adding MDA and stopped by dialysis of samples against PBS at 4° C. LDL (5 mg/mL) was modified in vitro with MDA (10 mM) in the presence of vehicle alone or with 2-HOBA at […] for 24 h in 50 mM sodium phosphate buffer (pH7.4) containing DTPA 100 μM. Reactions were initiated by adding MDA and stopped by dialysis of samples against PBS at 4° C. The LDL samples were incubated for 24 h with macrophages and the cholesterol content of the cells was measured using an enzymatic cholesterol assay as described.

[9] = background statement; cited from earlier work; remark: listed apart in the source
[10] = compared to Ldlr−/− mice consuming a chow diet
[11] = summary value, compared to vehicle or 4-HOBA
[12] = in contrast to vehicle or 4-HOBA

## NCc1ccc(O)cc1 [4-HOBA, 4-hydroxybenzylamine, reference compound]
[1]; Ldlr−/− mice
  atheroprotection: not atheroprotective
MDA-apoAI adducts; [10]
  plasma apoAI levels: reduced
  plasma levels of MDA-apoAI: markedly increased
[2]
  reaction with lipid dicarbonyls (dicarbonyl scavenger): ineffective
[3]
  oral bioavailability: orally bioavailable

## NCc1ccccc1O [2-HOBA, 2-hydroxybenzylamine]
[1]; compared to 4-HOBA
  reduction of atherosclerosis, en face analysis of the aorta: 59.1%
  reduction of the extent of proximal aortic atherosclerosis: 31.5%
[1]; compared to vehicle
  reduction of atherosclerosis, en face analysis of the aorta: 60.3%
  reduction of the extent of proximal aortic atherosclerosis: 31.1%
[1]; [11]
  decrease of atherosclerosis in en face aortas: 60%
  decrease of atherosclerosis in the proximal aortas: 31%
[4]
  effect on body weight: did not affect
[5]; compared to 4-HOBA
  reduction of MDA levels in the proximal aorta: 66.8%
[5]; compared to vehicle alone
  reduction of MDA levels in the proximal aorta: 68.5%
[6]; compared to 4-HOBA
  increase of collagen content of the proximal aorta: 2.6 fold
[6]; compared to vehicle
  increase of collagen content of the proximal aorta: 2.7 fold
[6]; summary value
  increased collagen content: 2.7 fold
  increased fibrous cap thickness: 2.1 fold
[6]; summary value, p<0.01
  reduction in necrotic core: 69%
[6]; versus 4-HOBA
  decrease of % necrotic area in the proximal aorta: 73.5%
[6]; versus 4-HOBA treated mice
  fibrous cap thickness, fold greater: 2.29 fold
[6]; versus vehicle
  decrease of % necrotic area in the proximal aorta: 74.8%
[6]; versus vehicle treated mice
  fibrous cap thickness, fold greater: 2.31 fold
[7]; 4-HOBA treated mice versus 2-HOBA treated mice
  number of TUNEL positive cells not associated with macrophages, fold increase (efferocytosis): 2.0 fold
[7]; compared to 4-HOBA
  reduction of the number of TUNEL positive cells in the proximal aortic lesion: 72.4%
[7]; compared to vehicle
  reduction of the number of TUNEL positive cells in the proximal aortic lesion: 72.9%
[7]; summary value, compared to 4-HOBA or vehicle treated mice
  reduction of the number of atherosclerotic lesion TUNEL positive cells: 72%
[7]; vehicle treated mice versus 2-HOBA treated mice
  number of TUNEL positive cells not associated with macrophages, fold increase (efferocytosis): 1.9 fold
Primary macrophages
  number of apoptotic cells in macrophage cultures: markedly decreased
Aortic endothelial cells
  number of apoptotic cells in endothelial cell cultures: markedly decreased
Peritoneal macrophages
  IL-1β mRNA level: significantly reduced
  IL-6 mRNA level: significantly reduced
  TNF-α mRNA level: significantly reduced
MDA-LDL adducts; compared to 4-HOBA
  reduction of plasma MDA-LDL levels: 54%
MDA-LDL adducts; compared to vehicle
  reduction of plasma MDA-LDL levels: 57%
MDA-HDL adducts; compared to 4-HOBA
  reduction of plasma MDA-HDL levels: 56%
MDA-HDL adducts; compared to vehicle
  reduction of plasma MDA-HDL levels: 57%
MDA-apoAI adducts; [12]
  plasma MDA-apoAI adducts: dramatically reduced
  plasma apoAI levels: increased
[8]; versus 4-HOBA treated mice
  efficiency of HDL from treated mice at reducing cholesterol stores in macrophage foam cells, fold: 1.7 fold
[8]; versus vehicle treated mice
  efficiency of HDL from treated mice at reducing cholesterol stores in macrophage foam cells, fold: 2.2 fold
macrophages
  ability of MDA modified LDL to increase cholesterol accumulation in macrophages: reduced
[2]
  reaction with lipid dicarbonyls (dicarbonyl scavenger): rapidly reacts
[9]
  reaction with lipid monocarbonyls: not with lipid monocarbonyls
[3]
  oral bioavailability: orally bioavailable
